Results as given in patent US12582695B2, “Compositions and methods for treating glioma” (Instytut Biologii Doświadczalnej im. Marcelego Nenckiego …, priority 2018, dated 2026).
Converted amounts (≈) assume the structure as drawn. Like-named read-outs stand apart in the source and are kept apart here. Where no end group is shown, it is not given here.

Assay: Solubility study
Assay type: physicochemical
[1] = water, read-out: Solubility Water

For `CC(C)C[C@H](NC(=O)[C@H](CCC(N)=O)NC(=O)[C@H](Cc1ccc(O)cc1)NC(=O)[C@H](CCC(N)=O)NC(=O)[C@H](Cc1ccccc1)NC(=O)[C@H](CC(=O)O)NC(=O)[C@H](CC(C)C)NC(=O)[C@H](Cc1ccc(O)cc1)NC(=O)[C@H](CO)NC(=O)[C@H](CC(C)C)NC(=O)[C@H](CCCCN)NC(=O)[C@H](CCC(N)=O)NC(=O)[C@H](Cc1ccc(O)cc1)NC(=O)[C@@H](N)CCCCN)C(=O)N[C@@H](CC(=O)O)C(=O)O` [G7K-1], the solubility (PBS, read-out: Solubility PBS) was 60 µg/mL (≈ 30.7 µM), the “solubility in water” value (water) was “improved water solubility” and the solubility [1] was 380 µg/mL (≈ 195 µM).

In the case of `CC(C)C[C@H](NC(=O)[C@H](CCC(N)=O)NC(=O)[C@H](Cc1ccc(O)cc1)NC(=O)[C@H](CCC(N)=O)NC(=O)[C@H](Cc1ccccc1)NC(=O)[C@H](CC(=O)O)NC(=O)[C@H](CC(C)C)NC(=O)[C@H](Cc1ccc(O)cc1)NC(=O)[C@H](CO)NC(=O)[C@H](CC(C)C)NC(=O)[C@H](CCCCN)NC(=O)[C@H](CCC(N)=O)NC(=O)[C@@H](N)Cc1ccc(O)cc1)C(=O)N[C@@H](CC(=O)O)C(=O)O` [G7], the solubility (PBS, read-out: Solubility PBS) is reported as 120 µg/mL (≈ 65.8 µM), the “solubility in aqueous buffers” value (aqueous buffers such as PBS) is reported as “weakly soluble” and the “solubility in water” value (water) is reported as “water insoluble”.

For YKKLSYLDFQYQLD [G7K2], the solubility (PBS, read-out: Solubility PBS) was 240 µg/mL, the “solubility in water” value (water) was “highest solubility” and the solubility [1] was 780 µg/mL.

A solubility (PBS, read-out: Solubility PBS) of 30 µg/mL and a solubility [1] of 130 µg/mL were found for YQKLSYLDFQKQLD [G7K11] in this work.

In the case of YQKLSYLDFQYQKD [G7K13], the solubility (PBS, read-out: Solubility PBS) is reported as 80 µg/mL, the “solubility in water” value (water) is reported as “improved water solubility” and the solubility [1] is reported as 360 µg/mL.

A solubility (PBS, read-out: Solubility PBS) of 80 µg/mL and a solubility [1] of 180 µg/mL were found for YQKLSYLDFQYQKDK [G7K15] in this work.
